# How the values were obtained:
# A2780 cells = experiment: Caspase-3 assay (dose response and time course), A2780 cells; type: cell-based, human
# Description: (§1) Ovarian cancer cell lines HEY (gift from Dr. J M Trent, (26)), A2780 and CP70 (gifts from Dr. T C Hamilton, (27)) were cultured at 37° C. in a 5% CO2 atmosphere. Culture medium varied with the cell line: DME/F12 plus 1% calf serum (HEY); DME/F12 plus 10% FBS, 584 ug/ml L glutamine (A2780 and CP70). All formulations contained 100 μg/ml streptomycin, 62.5 μg/ml penicillin and 2.5 μg/ml amphotericin. Primary cells were cultured in 50% 199 media and 50% MCDB 105 media (Sigma), supplemented with 10% fetal bovine serum (Hyclone, South Logan, Utah), 10 mM HEPES, 0.1 mM MEM non-essential amino acids, 1 mM sodium pyruvate, 100 nM penicili/streptomycin (Gibco) and 4 ng/ml EGF (Sigma). […]
# (§2) After drug treatment, cells were lysed and collected in cold 10 mM Tris, pH 7.5, 10 mM Na Phosphate buffer, 130 mM NaCl, 1% Triton X-100, 10 mM Na Pyrophosphate plus freshly added Protease Inhibitor Cocktail (20 μl/ml, Sigma P8340) and 2 MM PMSF. […] Protein concentration was determined by BioRad Protein Assay (BioRad).
# (§3) Caspase-3 activity was measured in duplicate from 50 μg cell lysate samples (lysate comprised less than 20% of the total reaction volume)(Promega Corp. CaspACE™ Assay System, Colorimetric). […] Absorbance of the cleaved product was read at 405 nm in a Dynatech MR3000 plate reader. Blank values were subtracted and caspase-3 activity was expressed as the absorbance at 405 nm of the cleaved substrate (pNA). […]
# EOC cells S 103 = experiment: TUNEL assay, EOC cells S103; type: cell-based, human; settings: S 103 cells
# Description: (§4) To avoid loss of the apoptotic cells, which detach from monolayer culture and are washed away, cells were cultured in suspension above a one ml layer of 1% agarose per well of a 6-well plate. Two ml of cells at 1×10^5/ml growth medium were placed in each well and incubated at 37° C. with 5% CO2. Plates were agitated gently once per day. After drug exposure for 4 hr, the cells were centrifuged, resuspended in fresh medium and returned to the same wells for 48 hr. Cells were centrifuged at 1000 rpm for 10 min, resuspended in 0.5 ml 10% neutral buffered formalin and incubated at room temperature for 10 min. Centrifugation was repeated and cells were resuspended in 80% ethanol. A 25 μl aliquot was pipeted onto a glass slide and dried at room temperature until no moisture was evident. Cells were calorimetrically stained with TUNEL assay reagents (Trevigen) according to the protocol provided by the manufacturer.
# [1] = system: Three established ovarian cancer cell lines and 19 ovarian cancer patient-derived cell samples; experiment: Caspase-3 assay, distribution of apoptotic response over 22 cases; type: cell-based, human; settings: of 22 cases, drugs tested separately
# Description: Ovarian cancer cell lines HEY (gift from Dr. J M Trent, (26)), A2780 and CP70 (gifts from Dr. T C Hamilton, (27)) were cultured at 37° C. in a 5% CO2 atmosphere. Culture medium varied with the cell line: […] All formulations contained 100 μg/ml streptomycin, 62.5 μg/ml penicillin and 2.5 μg/ml amphotericin. […] For drug treatments, approximately 1×10^5 cells in exponential growth were sub-cultured in a 25 cm^2 flask per treatment. […] With informed consent from 28 patients undergoing routine procedures at Yale-New Haven Hospital 100 to 200 ml of ascites fluid or pelvic washings were obtained. Epithelial cells were collected as previously described (28). Briefly, samples were centrifuged and the cellular pellet was resuspended in Hank's Balanced Salt Solution (HBSS; Gibco Invitrogen, Carlsbad, Calif.). The suspension was centrifuged at 1500 rpm for 10 mins at room temperature. The pellet was then resuspended in HBSS and layered onto LSM lymphocyte separation medium (ICN Biomedicals Inc, Aurora, Ill.) and centrifuged at 2000 rpm for 25 minutes at room temperature. The mononuclear cell-containing layer was collected and incubated with an anti-CD45 mAb conjugated to magnetic beads (Dynal, Oslo, Norway) at 4° C. with rotation for 30 minutes. Following this incubation, the cells were placed into a magnet and the unbound epithelial cells were collected, washed and placed into culture media. […] Remaining cells were cultured in primary culture medium as described above and evaluated for morphological evidence of malignancy by a pathologist. Viable, malignant cells were isolated from 21 of the 28 samples. In agreement with Lounis et al. (29), any fibroblastic cells in the isolated population disappeared after 2 to 3 passages and cells survived on average for 7 to 8 passages. […] Lysates were incubated on ice for 30 min, mixing every 5 min by gentle vortexing. […] Supernatants were frozen and stored at -70° C. Protein concentration was determined by BioRad Protein Assay (BioRad). […] CaspACETM Assay System, Colorimetric). […] Plates were incubated at 37° C. for 4 hr. Absorbance of the cleaved product was read at 405 nm in a Dynatech MR3000 plate reader. Blank values were subtracted and caspase-3 activity was expressed as the absorbance at 405 nm of the cleaved substrate (pNA). Drug treated samples were compared with samples which had not been treated to give a value called relative activity.
# CP70 cells [2] = experiment: Western blot for activated caspase-3, CP70 cells; type: cell-based, human
# Description: (§5) Cells were treated with drug as described above. Cells were then scraped from the culture vessel, pelleted at 2000 rpm at room temperature and lysed in phosphate buffered saline with 1% NP40, 0.1% sodium dodecyl sulfate. After 20 min on ice, debris was removed by centrifugation at 14,000×g at 4° C.
# (§6) Protein concentration was determined and 20 μg samples were denatured in sample buffer (2.5% SDS, 10% glycerol, 5% b-mercaptoethanol, 0.15 M Tris (pH 6.8) and 0.01% broinophenol blue) and subjected to 10 or 12% SDS-PAGE. Proteins were transferred to PVDF membranes (Immobilon, Millipore, Bedford, Mass.) at 100V for 105 min.
# (§7) Western blots were performed as previously described (32) (28). Antibodies and concentrations were: rabbit anti-actin (Sigma, 1:10,000), rabbit anti-proform caspase-3 (Santa Cruz, Santa Cruz Calif. 1:1000), rabbit anti-cleaved-caspase-3 (CellSignaling, 1:1000). Antibody binding was determined by enhanced chemiluminescence detection of peroxidase conjugated secondary antibodies (Vector).
# EOC cells RI82S = experiment: TUNEL assay, EOC cells R182S; type: cell-based, human
# Description: as §4
# [3] = system: A2780 ovarian cancer cells; experiment: Western blot for activated caspase-3, A2780 cells; type: cell-based, human
# Description: as §5, §6, §7
# EOC R182 cells = experiment: Western blot for activated caspase-3, EOC R182 cells; type: cell-based, human
# Description: as §5, §6, §7
# CP70 = experiment: Clonogenic assay, CP70 cell line; type: cell-based, human
# Description: (§8) Ovarian cancer cell lines HEY (gift from Dr. J M Trent, (26)), A2780 and CP70 (gifts from Dr. T C Hamilton, (27)) were cultured at 37° C. in a 5% CO2 atmosphere. Culture medium varied with the cell line: DME/F12 plus 1% calf serum (HEY); DME/F12 plus 10% FBS, 584 ug/ml L glutamine (A2780 and CP70). All formulations contained 100 μg/ml streptomycin, 62.5 μg/ml penicillin and 2.5 μg/ml amphotericin. Primary cells were cultured in 50% 199 media and 50% MCDB 105 media (Sigma), supplemented with 10% fetal bovine serum (Hyclone, South Logan, Utah), 10 mM HEPES, 0.1 mM MEM non-essential amino acids, 1 mM sodium pyruvate, 100 nM penicili/streptomycin (Gibco) and 4 ng/ml EGF (Sigma). For drug treatments, approximately 1×10^5 cells in exponential growth were sub-cultured in a 25 cm^2 flask per treatment. Carboplatin (Sigma C2538) or paclitaxel (Sigma T7402) was added to the media after the cells reached 60-70% confluence as described in the Results.
# Cells were seeded at 600 per 60 mm culture dish and incubated overnight to establish adherence then exposed to varying concentrations of drug for 4 hours. Medium was replaced and incubation was continued for 10-14 days. The cells were washed with 0.9% saline solution then fixed and stained in 72% methanol, 10% formaldehyde, 0.25% crystal violet. Colonies greater than 30 cells were counted. Percent survival was calculated based on the number of colonies in untreated dishes. Each treatment was done at least in duplicate.
# HEY = experiment: Clonogenic assay, HEY cell line; type: cell-based, human
# Description: as §8
# (§9) Cells were seeded at 600 per 60 mm culture dish and incubated overnight to establish adherence then exposed to varying concentrations of drug for 4 hours. Medium was replaced and incubation was continued for 10-14 days. […] Colonies greater than 30 cells were counted. Percent survival was calculated based on the number of colonies in untreated dishes. […]
# CP70 cells [4] = experiment: Caspase-3 assay (dose response and time course), CP70 cells; type: cell-based, human; settings: CP70, 0.1 μM, 30 hours treatment
# Description: as §1, §2, §3
# A2780 = experiment: Clonogenic assay, A2780 cell line; type: cell-based; settings: Homo sapiens, clonogenic survival, 4 hours drug exposure, 10-14 days
# Description: as §8, §9
# [5] = system: invasive ovarian carcinoma; settings: of 13 patients
# Excerpt: Patients were monitored for disease recurrence based on physical symptoms, physical examination, CA-125 levels and radiologic imaging. Chemosensitivity is defined as no evidence of disease recurrence, based on the above monitoring, within 6 months of completing the chemotherapy regimen of carboplatin and paclitaxel. Sensitivity of six months is commonly used to define which patients are platinum-sensitive in order to direct second-line therapy (30).
compound,measurement,setting,value
N.N.O=C([O-])C1(C(=O)[O-])CCC1.[Pt+2] [Carboplatin],caspase-3 activity,"A2780 cells; A2780, 24 hour exposure",significant caspase-3 activity
same,caspase-3 activity,"A2780 cells; A2780, 48 hour treatment, 100 μg/ml",Optimal activity
same,percentage of cells that stain for apoptosis (TUNEL),EOC cells S 103; 100 μg/ml,30.40%
same,Number of Cases Resistant (no increase of caspase-3 activity),[1],1
same,Number of Cases Sensitive (increased caspase-3 activity relative to untreated samples),[1],21
same,Number of Cases Resistant (no increase of caspase-3 activity),[1]; listed as carboplatin,one
same,expression of the active forms of caspase-3,"CP70 cells [2]; CP70, 100 μg/ml for 48 hr",No active forms of caspase-3 are present
same,percentage of TUNEL-positive cells,EOC cells RI82S; 100 μg/ml,90%
same,expression of the active forms of caspase-3,"[3]; A2780, carboplatin treatment",moderate levels
same,expression of the active forms of caspase-3,"EOC R182 cells; EOC R182, 100 μg/ml for 48 hr",No active forms of caspase-3 are present
same,resistance of CP70 relative to A2780,"CP70; clonogenic IC50, CP70 vs A2780",about 25 fold
CC(=O)O[C@H]1C(=O)[C@@]2(C)[C@H]([C@H](OC(=O)c3ccccc3)[C@]3(O)C[C@H](OC(=O)[C@H](O)[C@@H](NC(=O)c4ccccc4)c4ccccc4)C(C)=C1C3(C)C)[C@]1(OC(C)=O)CO[C@@H]1C[C@@H]2O [Paclitaxel],increase in number of TUNEL-positive cells compared to the untreated controls,EOC cells S 103; 0.1 μM,10-20%
same,relative response among the three cell lines,"HEY; HEY cells, clonogenic assay",most resistant
same,IC50,"HEY; Homo sapiens, HEY, clonogenic survival, 4 hours drug exposure, 10-14 days",100 nM
same,Number of Cases Resistant (no increase of caspase-3 activity),[1],12
same,Number of Cases Sensitive (increased caspase-3 activity relative to untreated samples),[1],10
same,Number of Cases Resistant (no increase of caspase-3 activity),[1]; listed as paclitaxel,Twelve
same,Number of Cases Sensitive (increased caspase-3 activity relative to untreated samples),[1]; listed as paclitaxel,Ten
same,expression of the active forms of caspase-3,"CP70 cells [2]; CP70, 0.1 μM for 30 hr",induces the expression of the active forms of caspase-3
same,increase in number of TUNEL-positive cells compared to the untreated controls,EOC cells RI82S; 0.1 μM,30-40%
same,expression of the active forms of caspase-3,"[3]; A2780, paclitaxel treatment",high levels
same,expression of the active forms of caspase-3,"EOC R182 cells; EOC R182, 0.1 μM for 30 hr",no expression of caspase-3 active forms
same,caspase-3 activity,CP70 cells [4],significant caspase-3 activity
same,IC50,A2780,43.7 nM
same,relative response among the three cell lines,"CP70; CP70 cells, clonogenic assay",most sensitive
same,IC50,"CP70; Homo sapiens, CP70, clonogenic survival, 4 hours drug exposure, 10-14 days",18.6 nM
Carboplatin and Paclitaxel,number of patients clinically responsive (chemo-sensitive),[5]; no evidence of disease recurrence for 6 months following completion of the regimen,seven
same,number of patients chemo-resistant,[5]; recurrence within 6 months of completing the regimen,six
same,Number of Cases Resistant (no increase of caspase-3 activity),[1],1
same,Number of Cases Sensitive (increased caspase-3 activity relative to untreated samples),[1],10
